Measured values from patent US20220233652A1, “Pharmaceutical Compositions Comprising Integration-Promoting Peptides” (priority 2018, published 2022).
Where two headings read alike, the source gives them in different places.

Tests used:
[1] = INS HCl solubility and stability in isotonic buffers of different pH (5 mg/ml in buffer, diluted to 1 mg/ml, LC-MS); type: physicochemical
Method: Analytical HPLC-MS was performed using an Agilent 1260 series Liquid Chromatograph/Mass Selective Detector (MSD, Single Quadrupole) equipped with an electrospray interface and a UV diode array detector. Analyses were performed on an ACE C8, 50×3.0 mm, 3 μm column, with an isocratic 0.1% formic acid/ACN (19%) eluent, at a rate of 1 ml/min over a period of 5 minutes. UV absorption was measured at 220 nm and 215-395 nm. MS analysis was performed with ESI (electron spray ionization) with a positive ionization method. PBS isotonic buffer was prepared from 1 tablet of Sigma Phosphate buffer saline P4417, in 200 ml of deionized water (according to product reconstitution instructions). Acetate isotonic buffers were prepared from sodium acetate/acetic acid in water in 150 mM concentration. NaOH 50% solution was used to adjust the pH. NaOAc solution was prepared by dissolving 1.23 gr in 100 ml water. Acetic acid solution was prepared by adding 945 μl of acetic acid to 100 ml water. […] The samples were further diluted to 1 mg/ml before analyzing by HPLC. The samples were prepared by dilution of 80 μl of reaction solution with 320 μl of MeOH. Each sample was filtered through PTFE 0.45 um filter vial. The samples were run in LC-MS and data used for calculation concentration in buffer. All injections for stability assay were performed using 20 μl due to low peak intensity with 2 μl. Final concentration was calculated accordingly.

[2] = system: PANC-1 human pancreatic cancer cells; assay: Pancreatic cancer tumor mice model; type: in vivo, athymic nude mice; settings: day 17
Method: Two models of cancer were generated: lung cancer and pancreatic cancer. About 5×10^6 of 1975 human lung cancer cells per 0.1 ml PBS per mouse were injected to male 7 weeks old athymic nude mice (n=30). The cells were injected, subcutaneously at one site on the back of the mice. About 5×10^6 PANC-1 human pancreatic cancer cells per 0.1 ml PBS per mouse were injected to male 7 weeks old athymic nude mice (n=22). The cells were injected, subcutaneously at one site on the back of the mice. When tumors were palpable (˜0.3-0.5 cm^3), the mice were randomly divided into three groups (Table 27) and the viruses and/or peptides were injected, twice a week for two weeks.
The first day of the study was defined as ‘Day 1’. The animals were administrated IP with either Vehicle (PBS or Formulation), lentiviral particles and SC with test items according to Table 27 on days 1, 4, 8 and 11. Body weight and tumor volume were checked on days 3, 7, 11, 14 and 17 (the latter was measured with a caliper). At the end of the experiment, on day 17, the mice were anesthetized and then sacrificed, and the tumors were removed, as well as lung, spleen, kidney and liver.

HIV-1 = system: HIV-1
Method: This is a phase I/IIa pilot—Proof of Concept, dose escalation study.
Three cohorts of 3-6 patients (per cohort) received twice a week the Multiple Ascending Doses (MAD*) for up to 8 weeks to evaluate safety, clinical dose and preliminary efficacy for a duration of up to 6 weeks. Interim analysis was performed to decide on the safety of the low dose and continue to a higher dose SC administration. Study Duration: 1 year including screening, treatment and post treatment follow up
Cohort 1: Three to six (3-6) patients, each one received twice a week the decided MAD* for up to 8 weeks (up to 16 doses per patient). Subcutaneous dose: LOW; 0.05, mg/kg, with escalation to 0.2 mg/kg body weight at week 2-4. Cohort 2: Three to six (3-6) patients, each one received twice a week the decided MAD* for up to 8 weeks (up to 16 doses per patient). Subcutaneous dose: MEDIUM; 0.1 mg/kg, with escalation to 0.3 mg/kg body weight at week 2-4. Cohort 3: Three to six (3-6) patients, each one received twice a week the decided MAD* for up to 8 weeks (up to 16 doses per patient). Subcutaneous dose: HIGH; 0.2 mg/kg, with escalation to 0.4 mg/kg body weight at week 2-4. Interim analysis was performed to decide on the safety of all cohorts' doses and continue to a higher dose, up to 0.2 mg/kg for Cohort 1, up to 0.3 mg/kg for Cohort 2 and up to 0.4 mg/kg for Cohort 3, SC administration.
Effectiveness of Gammora assessed by reduced Viral load (by 0.5 LOG; Viral Suppression). • 1. Mean Change in CD4+ Cell Count as a Measure of Efficacy and Safety. • 2. Reduced viral protein p24 antigen. • 3. Functional Assessment of HIV Infection (FAHI) questionnaire.

CD4 T-cell = assay: Phase I/IIa clinical trial: CD4 T-cell count; type: in vivo, human; settings: patients treated with INS (part II with lopinavir plus ritonavir)
Method: Reduced viral protein p24 antigen. • 3. Functional Assessment of HIV Infection (FAHI) questionnaire.
In addition, the preliminary results indicated treatment efficacy as measured by decrease in viral load in HIV patients. Most patients achieved significant reduction in viral load for up to 90% from baseline during the first 5 weeks of SC administration, meeting its exploratory endpoint. […] In this study, patients were treated for 5 weeks with a combined treatment of the subcutaneous composition as previous (0.2-0.4 mg/kg twice a week) and commercially available lopinavir 800 mg plus ritonavir 200 mg daily. The control group received only lopinavir 800 mg plus ritonavir 200 mg for additional 5 weeks.

[3] = PBS buffer pH 7.4, at 5° C. and at 25° C., 0 hours
[4] = acetate buffer pH 4, 5° C., 0 hours
[5] = acetate buffer pH 4, 5° C., 24 hours
[6] = acetate buffer pH 4, 5° C., 168 hours
[7] = acetate buffer pH 4, 25° C., 0 hours
[8] = acetate buffer pH 4, 25° C., 24 hours
[9] = acetate buffer pH 4, 25° C., 168 hours
[10] = acetate buffer pH 6, 5° C., 0 hours
[11] = acetate buffer pH 6, 5° C., 24 hours
[12] = acetate buffer pH 6, 5° C., 168 hours
[13] = acetate buffer pH 6, 25° C., 0 hours
[14] = acetate buffer pH 6, 25° C., 24 hours
[15] = acetate buffer pH 6, 25° C., 168 hours
[16] = 5 weeks INS 0.2-0.4 mg/kg SC twice a week + lopinavir 800 mg plus ritonavir 200 mg daily

With WTAVQMAVFIHNFKRK [INS] as the sequence, how does the Area [1, 3] read?
Its Area is 201.90 mAU*S.

What about the Assay % [1, 3] of the same sequence?
Its Assay % is 2.91%.

What about the “Concentration calculated from LC-MS data” value [1, 3] of the same sequence?
Its value is 0.030 mg/mL.

What about the Area ([1]; PBS buffer pH 7.4, at 5° C. and at 25° C., 24 hours) of the same sequence?
Its Area is “Not observed”.

And the Area ([1]; PBS buffer pH 7.4, at 5° C. and at 25° C., 168 hours)?
The Area was “Not observed”.

What about the “Solubility in PBS buffer pH 7.4” value ([1]; a white precipitate was observed) of the same sequence?
The value was “no solubility at all”.

And the Assay % [1, 4]?
The Assay % was 66.84%.

And the “Concentration calculated from LC-MS data” value [1, 4]?
Its value is 0.646 mg/mL.

What about the Assay % [1, 5] of the same sequence?
Its Assay % is 62.32%.

And the “Concentration calculated from LC-MS data” value [1, 5]?
The value was 0.602 mg/mL.

And the Assay % [1, 6]?
Its Assay % is 62.00%.

And the “Concentration calculated from LC-MS data” value [1, 6]?
Its value is 0.599 mg/mL.

What about the Assay % [1, 7] of the same sequence?
The Assay % was 66.87%.

What about the “Concentration calculated from LC-MS data” value [1, 7] of the same sequence?
Its value is 0.646 mg/mL.

And the Assay % [1, 8]?
Its Assay % is 66.25%.

And the “Concentration calculated from LC-MS data” value [1, 8]?
Its value is 0.640 mg/mL.

And the Assay % [1, 9]?
Its Assay % is 36.75%.

And the “Concentration calculated from LC-MS data” value [1, 9]?
Its value is 0.355 mg/mL.

What about the Assay % [1, 10] of the same sequence?
The Assay % was 73.49%.

And the “Concentration calculated from LC-MS data” value [1, 10]?
Its value is 0.729 mg/mL.

What about the Assay % [1, 11] of the same sequence?
The Assay % was 53.43%.

What about the “Concentration calculated from LC-MS data” value [1, 11] of the same sequence?
Its value is 0.530 mg/mL.

And the Assay % [1, 12]?
Its Assay % is 44.15%.

And the “Concentration calculated from LC-MS data” value [1, 12]?
Its value is 0.438 mg/mL.

What about the Assay % [1, 13] of the same sequence?
Its Assay % is 73.49%.

What about the “Concentration calculated from LC-MS data” value [1, 13] of the same sequence?
The value was 0.729 mg/mL.

What about the Assay % [1, 14] of the same sequence?
The Assay % was 52.42%.

What about the “Concentration calculated from LC-MS data” value [1, 14] of the same sequence?
Its value is 0.520 mg/mL.

What about the Assay % [1, 15] of the same sequence?
Its Assay % is 21.98%.

And the “Concentration calculated from LC-MS data” value [1, 15]?
Its value is 0.218 mg/mL.

And the “Assay at time zero” value ([1]; acetate buffers pH 4 and pH 6)?
Its value is “about 70%”.

What about the “Stability at 5° C. versus 25° C.” value ([1]; acetate buffers pH 4 and pH 6) of the same sequence?
Its value is “better stability at 5 °C compared to the samples at 25 °C”.

And the “Reduction of weight of tumors relative to control” value ([2]; lentiviral particles + INS 1.25 mg/kg SC)?
The value was 25%.

What about the “Reduction of weight of tumors relative to control” value ([2]; lentiviral particles + INS 2.5 mg/kg SC) of the same sequence?
Its value is 50%.

What about the “HIV-1 RNA count” value (HIV-1; [16]) of the same sequence?
The value was “below 300 copies/mL”.

And the “Reduction in viral load from baseline” value (HIV-1; [16])?
The value was “up to 99%”.

And the “Reduction in viral load from baseline” value (HIV-1; most patients, first 5 weeks of SC administration, INS alone)?
Its value is “up to 90%”.

What about the “Increase of CD4 T-cell count relative to baseline” value (CD4 T-cell) of the same sequence?
The value was “up to 97%”.
